pIC50, pKi: −log10 of the molar value. Like-named read-outs stand apart in the source and are kept apart here.
Tests used:
HL-60 (Leukemia) = assay: Proliferation of HL-60; format: cell-based; conditions: for pIC50: Homo sapiens, HL-60, read-out: IC50 HL-60 (Leukemia)
Protocol: (§1) The diterpenoid compounds were tested in A549, a non-small cell lung cancer cell line harboring a K-Ras activating mutation. Briefly, A549 cells at a density of 1,000 cells/well were seeded in 96-well plates and incubated at 37° C. for 24 hours. A series of different concentrations of compound stocks (500×) were prepared by 3-fold serial dilution in DMSO. These compounds were further diluted in culture media and then added to cells so that the final DMSO concentration was not exceeding 0.25%. After 96 hours of incubation, 50 μL of CellTiter Glo reagent (Promega) was added to each well and luminescence was measured after 10 minutes using EnVision (PerkinElmer). Luminescence from cells treated with DMSO alone was set as Max and % of inhibition was calculated as follows: Inhibition %=(Max-Sample value)/Max×100. Data was analyzed using XL-fit software (ID Business Solutions Ltd.) and IC50, relative IC50, and % of top inhibition was calculated. Some of the compounds in this disclosure were very potent in blocking proliferation of A549 lung cancer cells at low nM range. In addition, potency of inhibiting A549 proliferation correlated well with its binding affinity to PKCs for this series of compounds. In other words, higher affinity binders had stronger inhibitory effects on A549 proliferation. This further support the notion that activation, rather than inhibition, of certain PKC isoforms is required to block proliferation of cancer cells, some of which may harbor K-Ras mutations. This is in sharp contrast to previous literature and common belief that inhibition of PKC is necessary to block cancer cell growth (Kang, 2014, New Journal of Science, 2014:1-36). Data presented here is in agreement with recent findings that many loss-of-function but not gain-of-function mutations of PKC isoforms have been identified in many human cancers (Antal et al., 2015, Cell, 160:489-502).
(§2) The compounds in this disclosure were tested for their potency in blocking proliferation of a few other cancer cells lines, including K-Ras mutant pancreatic cell lines Panc2.13 and KP-4, leukemia cell line HL-60, and lymphoma cell lines Namalwa and Mino. Similar procedures as in Example 67 were followed. Initial cell numbers seeded in 96-well plates were different for different cell lines: 3000 cells/well for Panc2.13; 800-1000 cells/well for KP-4; 5000 cells/well for HL-60; 5000-10000 cells/well for Namalwa and Mino. A ratio of (IC50 of K101)/(IC50 of compound) (data in parenthesis in Table 5) was used to normalize the compound potency from different assay batches to a common comparator K101.

Mino (Lymphoma) = assay: Proliferation of Mino; format: cell-based; conditions: for pIC50: Homo sapiens, MINO, read-out: IC50 Mino (Lymphoma)
Protocol: as §1, §2

A549 cell line = assay: Proliferation of A549 (CellTiter Glo); format: cell-based; conditions: read-out: IC50 μM (A549 Cell Line)
Protocol: as §1

Namalwa (Lymphoma) = assay: Proliferation of Namalwa; format: cell-based; conditions: for pIC50: read-out: IC50 Namalwa (Lymphoma)
Protocol: as §1, §2

[1] = system: NFκB-driven transcription in HeLa-NFκB luciferase reporter cell line; assay: NFκB luciferase reporter assay; conditions: Homo sapiens, HeLa, 16 h, read-out: NFκB-luc HeLa cells EC50 (μM)
C1b domain of human PKCδ = molecular target: T1, C1b domain of human PKCδ (Homo sapiens, UniProt Q05655); assay: biochemical; format: binding; conditions: 3H-PDBu competition
T1 construct: Genes encoding C1b domains of human PKCα, δ, ε, θ, and PKD1 (PKCμ) were synthesized; made in house; host or cells: E. coli BL21(DE3)
T1 sequence (Q05655 230-280 limits assumed): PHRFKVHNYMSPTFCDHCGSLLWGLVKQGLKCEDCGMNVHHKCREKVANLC
Protocol: Compounds described in this disclosure were tested for binding affinity to C1b domain of PKC isoforms. Compound binding affinity to C1b domain of PKC isoforms was derived from competitive binding assay using radioactive tracer ^3H-PDBu and recombinant GST-C1b or full-length of human PKC proteins based on modified procedures from Methods in Molecular Biology, vol.
Genes encoding C1b domains of human PKCα, δ, ε, θ, and PKD1 (PKCμ) were synthesized and inserted into pGEX-2TK or pGEX-4T1 vectors for expression and production of GST-C1b proteins in E. coli BL21(DE3) via IPTG induction. The target proteins were purified by glutathione sepharose 4B and followed by ion exchange chromatography if needed to achieve purity >70%. Aliquots of the purified proteins were stored at −80 degree for binding assay (storage buffer: 20 mM Tris pH 8.0, 200 mM NaCl, 10% glycerol, 1 mM DTT).
The plate was incubated at 37° C. on a shaker at 300 rpm for 10 minutes and then put on ice for 20 minutes. […] The bottom of the filter plate was sealed and 50 μL of MicroScint-20 (PerkinElmer) cocktail was added to each well. ^3H-PDBu trapped in each well was counted using PerkinElmer MicroBeta2 Reader. Data were analyzed using GraphPad Prism5 with the model “log(inhibitor) vs. response-variable slope” to fit the IC50, and then IC50 was transformed to Ki using Cheng-Prusoff equation: Ki=IC50/(1+added radio ligand/Kd). Kd is the binding affinity of each protein preparation to ^3H-PDBu, determined experimentally.

Question: What does the source list for `CC1=C[C@H]2[C@@]3(O)[C@H](C)C[C@]4(OC(=O)CCc5ccc(C(F)(F)F)cc5)[C@H]([C@@H]3C=C(CO)C[C@]2(O)C1=O)C4(C)C`?
Answer: ratio (IC50 of K101)/(IC50 of compound) HL-60 (HL-60 (Leukemia)): 72; pIC50 (HL-60 (Leukemia)): 8.00 to 9.00; ratio (IC50 of K101)/(IC50 of compound) Mino (Mino (Lymphoma)): 75; pIC50 (Mino (Lymphoma)): > 9.00; IC50 (A549 cell line; Homo sapiens, A549, 96 h): 0.01 to 0.03 µM; ratio (IC50 of K101)/(IC50 of compound) Namalwa (Namalwa (Lymphoma)): 13.8; pIC50 (Namalwa (Lymphoma)): 8.00 to 9.00; EC50 [1]: 0.01 to 0.03 µM

Question: How did the IC50 (A549 cell line; Homo sapiens, A549, 96 h) turn out when `CC1=C[C@H]2[C@@]3(O)[C@H](C)C[C@]4(OC(=O)C5CC6(CNC6)C5)[C@H]([C@@H]3C=C(CO)C[C@]2(O)C1=O)C4(C)C` was run?
Answer: > 30 µM

Question: `CCCC[C@H](N)C(=O)O[C@@]12C[C@@H](C)[C@@]3(O)[C@@H](C=C(CO)C[C@]4(O)C(=O)C(C)=C[C@@H]34)[C@@H]1C2(C)C` was tested. Which IC50 (A549 cell line; Homo sapiens, A549, 96 h) did it give?
Answer: 0.6 to 1 µM

Question: And the pKi (C1b domain of human PKCδ)?
Answer: 7.52 to 8.00

Question: Which IC50 (A549 cell line; Homo sapiens, A549, 96 h) does the source give for `CC1=C[C@H]2[C@@]3(O)[C@H](C)C[C@]4(OC(=O)CCc5c[nH]c6ncccc56)[C@H]([C@@H]3C=C(CO)C[C@]2(O)C1=O)C4(C)C` here?
Answer: 2 to 5 µM

Question: How did the IC50 (A549 cell line; Homo sapiens, A549, 96 h) turn out when `CC1=C[C@H]2[C@@]3(O)[C@H](C)C[C@]4(OC(=O)CCc5cnn(C)c5)[C@H]([C@@H]3C=C(CO)C[C@]2(O)C1=O)C4(C)C` was run?
Answer: 2 to 5 µM

Question: Which “ratio (IC50 of K101)/(IC50 of compound) HL-60” value (HL-60 (Leukemia)) does the source give for `CC1=C[C@H]2[C@@]3(O)[C@H](C)C[C@]4(OC(=O)CCCc5ccccc5)[C@H]([C@@H]3C=C(CO)C[C@]2(O)C1=O)C4(C)C` here?
Answer: 32.7

Question: And the pIC50 (HL-60 (Leukemia))?
Answer: 7.52 to 8.00

Question: What about the “ratio (IC50 of K101)/(IC50 of compound) Mino” value (Mino (Lymphoma)) of the same molecule?
Answer: 37.5

Question: What about the pIC50 (Mino (Lymphoma)) of the same molecule?
Answer: 8.00 to 9.00

Question: What about the IC50 (A549 cell line; Homo sapiens, A549, 96 h) of the same molecule?
Answer: 0.01 to 0.03 µM

Question: And the “ratio (IC50 of K101)/(IC50 of compound) Namalwa” value (Namalwa (Lymphoma))?
Answer: 8.63

Question: What about the pIC50 (Namalwa (Lymphoma)) of the same molecule?
Answer: 8.00 to 9.00

Question: What about the EC50 [1] of the same molecule?
Answer: 0.01 to 0.03 µM

Question: With `CC1=C[C@H]2[C@@]3(O)[C@H](C)C[C@]4(OC(=O)[C@@H](N)CC5CCC5)[C@H]([C@@H]3C=C(CO)C[C@]2(O)C1=O)C4(C)C` as the molecule, how does the IC50 (A549 cell line; Homo sapiens, A549, 96 h) read?
Answer: 1 to 2 µM

Question: With `CC1=C[C@H]2[C@@]3(O)[C@H](C)C[C@]4(OC(=O)[C@@H](N)CCS(C)(=O)=O)[C@H]([C@@H]3C=C(CO)C[C@]2(O)C1=O)C4(C)C` as the molecule, how does the IC50 (A549 cell line; Homo sapiens, A549, 96 h) read?
Answer: > 30 µM

Question: Which results are given for `CC1=C[C@H]2[C@@]3(O)[C@H](C)C[C@]4(OC(=O)[C@@H](N)CC(C)(C)C)[C@H]([C@@H]3C=C(CO)C[C@]2(O)C1=O)C4(C)C`?
Answer: IC50 (A549 cell line; Homo sapiens, A549, 96 h): 0.2 to 0.6 µM; pKi (C1b domain of human PKCδ): 7.52 to 8.00

Question: For `CC1=C[C@H]2[C@@]3(O)[C@H](C)C[C@]4(OC(=O)[C@@H](N)C5Cc6ccccc6C5)[C@H]([C@@H]3C=C(CCl)C[C@]2(O)C1=O)C4(C)C`, which IC50 (A549 cell line; 96 hours, CellTiter Glo) is on record?
Answer: 0.06 to 0.1 µM

Question: `CC1=C[C@H]2[C@@]3(O)[C@H](C)C[C@]4(OC(=O)[C@@H](N)CC5CC5)[C@H]([C@@H]3C=C(CO)C[C@]2(O)C1=O)C4(C)C` was tested. Which IC50 (A549 cell line; Homo sapiens, A549, 96 h) did it give?
Answer: 2 to 5 µM

Question: And the pKi (C1b domain of human PKCδ)?
Answer: 7.00 to 7.22

Question: With `CC1=C[C@H]2[C@@]3(O)[C@H](C)C[C@]4(OC(=O)[C@@H](N)CC5CCCC5)[C@H]([C@@H]3C=C(CO)C[C@]2(O)C1=O)C4(C)C` as the molecule, how does the IC50 (A549 cell line; Homo sapiens, A549, 96 h) read?
Answer: 0.1 to 0.2 µM

Question: Which IC50 (A549 cell line; Homo sapiens, A549, 96 h) does the source give for `CC1=C[C@H]2[C@@]3(O)[C@H](C)C[C@]4(OC(=O)CCCCCCCCCCC(=O)O)[C@H]([C@@H]3C=C(CO)C[C@]2(O)C1=O)C4(C)C` here?
Answer: 10 to 30 µM

Question: Which IC50 (A549 cell line; Homo sapiens, A549, 96 h) does the source give for `CC1=C[C@H]2[C@@]3(O)[C@H](C)C[C@]4(OC(=O)[C@H](N)CC5CCCCC5)[C@H]([C@@H]3C=C(CO)C[C@]2(O)C1=O)C4(C)C` here?
Answer: 0.2 to 0.6 µM

Question: What about the pKi (C1b domain of human PKCδ) of the same molecule?
Answer: 7.52 to 8.00
